{"source": "patent US6992088B2", "about": "“Nitro and amino substituted heterocycles as topoisomerase I targeting agents” (Rutgers, The State University of New Jersey, priority 2002, dated 2006)", "key": {"KB3-1": {"tested_on": "KB3-1", "assay": "MTT-microtiter plate tetrazolinium cytotoxicity assay, KB3-1", "format": "cell-based", "settings": "Homo sapiens, KB 3-1, KB3-1 cells", "experimental": "(§1) Test B. Inhibition of Cell Growth: MTT-microtiter Plate Tetrazolinium Cytotoxicity Assay (RPMI 8402, CPT-K5, U937, U937/CR Cells)\n(§2) The cytotoxicity is determined using the MTT-microtiter plate tetrazolinium cytotoxicity assay (MTA), see Chen A. Y. et al. Cancer Res. 1993, 53, 1332; Mosmann, T. J., J. Immunol. Methods 1983, 65, 55; and Carmichael, J. et al. Cancer Res. 1987, 47, 936. The human lymphoblast RPMI 8402 and its camptothecin-resistant variant cell line, CPT-K5 were provided by Dr. Toshiwo Andoh (Anchi Cancer Research Institute, Nagoya, Japan), see Andoh, T.; Okada, K, Adv. in Pharmacology 1994, 29B, 93. Human U-937 myeloid leukemia cells and U-937/CR cells were described by Rubin et al., J. Biol. Chem., 1994, 269, 2433-2439. The cytotoxicity assay is performed by using 96-well microtiter plates using 2000 cells/well, in […] of growth medium. Cells are grown in suspension at 37° C. in 5% CO2 and maintained by regular passage in RPMI medium supplemented with 10% heat-inactivated fetal bovine serum, L-glutamine (2 mM), penicillin (100U/mL), and streptomycin (0.1 mg/mL). For determination of IC50, cells are exposed continuously for 3-4 days to varying concentrations of drug, and MTT assays were performed at the end of the fourth day. […] All assays are performed at least twice in 6 replicate wells. […]"}, "CPT-K5": {"tested_on": "CPT-K5", "assay": "MTT-microtiter plate tetrazolinium cytotoxicity assay, CPT-K5 (camptothecin-resistant variant)", "format": "cell-based", "settings": "Homo sapiens, CPT-K5 cells (camptothecin-resistant variant of RPMI 8402), continuous exposure 3-4 days", "experimental": "as §1, §2"}, "HL60/MX2": {"tested_on": "HL60/MX2", "assay": "MTT-microtiter plate tetrazolinium cytotoxicity assay, HL60/MX2", "format": "cell-based", "settings": "Homo sapiens, HL60/MX2 cells", "experimental": "as §1, §2"}, "KBV-1": {"tested_on": "KBV-1", "assay": "MTT-microtiter plate tetrazolinium cytotoxicity assay, KBV-1", "format": "cell-based", "settings": "Homo sapiens, KB-V1, KBV-1 cells", "experimental": "as §1, §2"}, "KBH5.0": {"tested_on": "KBH5.0", "assay": "MTT-microtiter plate tetrazolinium cytotoxicity assay, KBH5.0", "format": "cell-based", "settings": "KBH5.0 cells", "experimental": "as §1, §2"}, "HL60": {"tested_on": "HL60", "assay": "MTT-microtiter plate tetrazolinium cytotoxicity assay, HL60", "format": "cell-based", "settings": "Homo sapiens, HL-60, HL60 cells", "experimental": "as §1, §2"}, "RPMI8402": {"tested_on": "RPMI8402", "assay": "MTT-microtiter plate tetrazolinium cytotoxicity assay, RPMI8402", "format": "cell-based", "settings": "Homo sapiens, RPMI 8402, RPMI8402 cells, continuous exposure 3-4 days", "experimental": "as §1, §2"}}, "data": [{"smiles": "CN(C)CCCn1c2c(c3ccc([N+](=O)[O-])cc3c1=O)C(=O)c1cc3c(cc1-2)OCO3", "note": "[Compound B]", "values": [{"measurement": "IC50", "setting": "KB3-1", "result": 0.004, "unit": "µM"}, {"measurement": "IC50", "setting": "CPT-K5", "result": 2.4, "unit": "µM"}, {"measurement": "IC50", "setting": "HL60/MX2", "result": 0.003, "unit": "µM"}, {"measurement": "IC50", "setting": "KBV-1", "result": 0.004, "unit": "µM"}, {"measurement": "IC50", "setting": "KBH5.0", "result": 0.004, "unit": "µM"}, {"measurement": "melting point", "result": "191 to 192", "unit": "°C"}, {"measurement": "IC50", "setting": "HL60", "result": 0.003, "unit": "µM"}, {"measurement": "IC50", "setting": "RPMI8402", "result": 0.003, "unit": "µM"}]}]}
